Experimental data from ChEMBL document CHEMBL1148928, “Hyrtiosenolides A and B, two new sesquiterpene gamma-methoxybutenolides and a new sterol from a Red Sea sponge Hyrtios species” (2004).
Calls of active or inactive are those of the source. The rule behind the calls is not given here.

Legend:
Escherichia coli [1] = test: Antibacterial activity against Escherichia coli at 50 ug/disk; type: functional
Escherichia coli [2] = test: Antibacterial activity against Escherichia coli at 100 ug/disk; type: functional

SMILES	Activity (Escherichia coli [1])	Activity (Escherichia coli [2])	zone of inhibition at 50 µg/disc (Escherichia coli [1]; read-out: IZ) [mm]	zone of inhibition at 100 µg/disc (Escherichia coli [2]; read-out: IZ) [mm]
C=C1[C@@]2(C)CCC3=CC(=O)O[C@]3(OC)[C@H](C2)C[C@@]1(C)O	inactive	inactive	–	–
C=C1C[C@H]2C[C@](C)(CCC3=CC(=O)O[C@@]32OC)[C@]1(C)O [HYRTIOSENOLIDE A]	–	–	7	7
